Laboratory results reported in ChEMBL document CHEMBL6103565, “Current strategies in design and synthesis of antifungals hybrid and chimeric diazine derivatives” (Bioorg Med Chem, 2025).
In brackets after ≈: the same amount, converted by molar mass.

How the values were obtained:
Type in all cases: functional
Cryptococcus neoformans [1] = experiment: Antifungal activity against Cryptococcus neoformans
Candida albicans [2] = experiment: Antifungal activity against Candida albicans
Aspergillus niger [3] = experiment: Antifungal activity against Aspergillus niger MTCC 282 assessed as reduction in microbial growth after 24 hrs by broth micro-dilution method
Geotrichum candidum = experiment: Antifungal activity against Geotrichum candidum
[4] = system: Syncephalastrum racemosum; experiment: Antifungal activity against Syncephalastrum racemosum
Candida albicans [5] = experiment: Antifungal activity against Candida albicans ATCC 10231 assessed as inhibition of mycelial growth relative to control
Aspergillus niger [6] = experiment: Antifungal activity against Aspergillus niger ATCC 16404 assessed as inhibition of mycelial growth relative to control
Aspergillus terreus = experiment: Antifungal activity against Aspergillus terreus assessed as zone of inhibition by disc diffusion method
Candida albicans [7] = experiment: Antifungal activity against Candida albicans NRRL-Y477 assessed as zone of inhibition by disc diffusion method
Candida albicans [8] = experiment: Antifungal activity against Candida albicans ATCC 90028 assessed as growth inhibition incubated for 36 hrs by resazurin dye based assay
Candida albicans [9] = experiment: Antifungal activity against azole-resistant Candida albicans ATCC 18804 assessed as fungal growth inhibition incubated for 24 hrs by CLSI protocol based broth microdilution method
Candida albicans [10] = experiment: Antifungal activity against Candida albicans assessed as reduction in fungal growth incubated for 72 hrs by agar well diffusion method
Candida albicans [11] = experiment: Antifungal activity against azole-resistant Candida albicans ATCC 10231 assessed as fungal growth inhibition incubated for 24 hrs by CLSI protocol based broth microdilution method
Aspergillus niger [12] = experiment: Antifungal activity against Aspergillus niger assessed as zone of inhibition by disc diffusion method
Aspergillus fumigatus [13] = experiment: Antifungal activity against Aspergillus fumigatus assessed as zone of inhibition
Cryptococcus neoformans [14] = experiment: Antifungal activity against Cryptococcus neoformans assessed as reduction in fungal growth incubated for 24 hrs by broth microdilution method
Candida albicans [15] = experiment: Antifungal activity against azole-resistant Candida albicans ATCC 10231 assessed as reduction in fungal growth by XTT assay
Aspergillus fumigatus [16] = experiment: Antifungal activity against Aspergillus fumigatus assessed as reduction in fungal growth incubated for 72 hrs by agar well diffusion method
Candida albicans [17] = experiment: Antifungal activity against azole-resistant Candida albicans ATCC 18804 assessed as reduction in fungal growth by XTT assay
Aspergillus flavus [18] = experiment: Antimicrobial activity against Aspergillus flavus assessed as zone of inhibition
[19] = system: Syncephalastrum racemosum; experiment: Antifungal activity against Syncephalastrum racemosum assessed as zone of inhibition
Candida albicans [20] = experiment: Antimicrobial activity against Candida albicans ATCC 64124 assessed as reduction in microbial growth by CLSI protocol based micro-broth dilution method
Microsporum audouinii = experiment: Antifungal activity against Microsporum audouinii
Aspergillus fumigatus [21] = experiment: Antifungal activity against Aspergillus fumigatus assessed as reduction in fungal growth incubated for 20 to 24 hrs by CLSI based micro-dilution analysis; details: time 20-24 hrs
Aspergillus fumigatus [22] = experiment: Antifungal activity against Aspergillus fumigatus RCMB 002568 assessed as diameter of zone inhibition
Candida albicans [23] = experiment: Antifungal activity against Candida albicans RCMB 005036 assessed as diameter of zone inhibition
Candida albicans [24] = experiment: Antifungal activity against Candida albicans SC5314 assessed as reduction in fungal growth incubated for 72 hrs by broth microdilution method
[25] = system: Talaromyces purpureogenus; experiment: Antifungal activity against Talaromyces purpureogenus assessed as zone of inhibition by disc diffusion method
Aspergillus fumigatus [26] = experiment: Antifungal activity against Aspergillus fumigatus
Trichophyton rubrum = experiment: Antifungal activity against Trichophyton rubrum assessed as diameter of zone inhibition
Candida albicans [27] = experiment: Antifungal activity against Candida albicans ATCC 10231 assessed as zone of inhibition incubated for 24 hrs by disc diffusion method
Candida albicans [28] = experiment: Antifungal activity against Candida albicans assessed as fungal growth inhibition
Candida albicans [29] = experiment: Antifungal activity against Candida albicans assessed as zone of inhibition
Candida parapsilosis = experiment: Antifungal activity against Candida parapsilosis ATCC 22019; details: Lodderomyces parapsilosis
Candida albicans [30] = experiment: Antifungal activity against Candida albicans assessed as zone of inhibition by disc diffusion method
Aspergillus flavus [31] = experiment: Antifungal activity against Aspergillus flavus assessed as zone of inhibition by disc diffusion method
Candida albicans [32] = experiment: Antifungal activity against Candida albicans ATCC 10231
Aspergillus fumigatus [33] = experiment: Antifungal activity against Aspergillus fumigatus assessed as reduction in fungal growth
Saccharomyces cerevisiae [34] = experiment: Antimicrobial activity against Saccharomyces cerevisiae assessed as zone of inhibition by disc diffusion method
Pichia kudriavzevii = experiment: Antifungal activity against Candida krusei ATCC 6258
Nakaseomyces glabratus = experiment: Antifungal activity against Candida glabrata ATCC 90030
Candida albicans [35] = experiment: Antifungal activity against Candida albicans assessed as zone of inhibition by serial dilution and disc diffusion method
Candida albicans [36] = experiment: Antifungal activity against Candida albicans assessed as reduction in fungal growth incubated for 18 hrs by broth microdilution method
Rhizopus microsporus = experiment: Antifungal activity against Rhizopus microsporus assessed as diameter of inhibition zone
Saccharomyces cerevisiae [37] = experiment: Antimicrobial activity against Saccharomyces cerevisiae assessed as zone of inhibition
Aspergillus niger [38] = experiment: Antifungal activity against Aspergillus niger assessed as zone of inhibition
Candida albicans [39] = experiment: Antifungal activity against Candida albicans assessed as diameter of inhibition zone
Penicillium chrysogenum = experiment: Antifungal activity against Penicillium chrysogenum ATCC 20044 assessed as reduction in fungal growth incubated ofr 48 hrs by CLSI micro-dilution method
Aspergillus flavus [40] = experiment: Antifungal activity against Aspergillus flavus ATCC 20046 assessed as reduction in fungal growth incubated ofr 48 hrs by CLSI micro-dilution method
Fusarium solani = experiment: Antifungal activity against Fusarium solani ATCC 20327 assessed as reduction in fungal growth incubated ofr 48 hrs by CLSI micro-dilution method
Penicillium frequentans = experiment: Antifungal activity against Penicillium frequentans ATCC 10110 assessed as reduction in fungal growth incubated ofr 48 hrs by CLSI micro-dilution method
Alternaria alternata = experiment: Antifungal activity against Alternaria alternata ATCC 8741 assessed as reduction in fungal growth incubated ofr 48 hrs by CLSI micro-dilution method

## O=c1cc[nH]c(=O)n1N=C1CC(c2ccc(O)cc2)SC(c2ccc(O)cc2)C1 (stereo not given)
Cryptococcus neoformans [1]
  MIC: 4 µg/mL (≈ 9.77 µM)
Candida albicans [2]
  MIC: 0.25 µg/mL (≈ 0.611 µM)

## Clc1ccc(C2CC(c3cnc(Cl)cn3)=Nc3ccccc3S2)c(Cl)c1 (stereo not given)
Aspergillus niger [3]
  MIC: 19 µM

## Cc1nn(-c2ccccc2)c2nc3sc(C(=O)OCC(=O)c4ccccc4)c(N)c3nc12
Candida albicans [2]
  MIC: 5 µg/mL (≈ 11.3 µM)
Geotrichum candidum
  MIC: 4 µg/mL (≈ 9.02 µM)
[4]
  MIC: 5 µg/mL (≈ 11.3 µM)

## CCCCCCCC(=O)O[C@@H]1[C@H](OC(=O)CCCCCCC)[C@@H](COC(c2ccccc2)(c2ccccc2)c2ccccc2)O[C@H]1n1ccc(=O)[nH]c1=O
Candida albicans [5]
  inhibition (INH): 70%
Aspergillus niger [6]
  inhibition (INH): 99%

## CCOC(=O)c1c(C)nc2sc3c(ncn4nc(C)nc34)c2c1-c1cccs1
Aspergillus terreus
  inhibition zone (IZ): 25 mm
Candida albicans [7]
  inhibition zone (IZ): 25 mm

## FC(F)(F)c1nnc2n1CCN(C(=S)Nc1ccc(Br)cc1)C2
Candida albicans [8]
  MIC: 6.25 µg/mL (≈ 15.4 µM)

## C[C@@H]1[C@H](O)[C@@H](C)/C=C/C=C/C=C/C=C/C=C/C=C/C=C/[C@H](O[C@@H]2O[C@H](C)[C@@H](O)[C@H](N)[C@@H]2O)C[C@@H]2O[C@](O)(C[C@@H](O)C[C@@H](O)[C@H](O)CC[C@@H](O)C[C@@H](O)CC(=O)O[C@H]1C)C[C@H](O)[C@H]2C(=O)O [AMPHOTERICIN B]
Candida albicans [9]
  MIC: 0.2 µg/mL (≈ 0.216 µM)
Candida albicans [10]
  MIC: 3.9 µg/mL (≈ 4.22 µM)
Candida albicans [11]
  MIC: 1.9 µg/mL (≈ 2.06 µM)
Aspergillus niger [12]
  inhibition zone (IZ): 17 mm
Aspergillus fumigatus [13]
  inhibition zone (IZ): 24 mm
Cryptococcus neoformans [14]
  MIC: 0.39 µg/mL (≈ 0.422 µM)
Candida albicans [15]
  MIC: 1.9 µg/mL (≈ 2.06 µM)
Aspergillus fumigatus [16]
  MIC: 1.95 µg/mL (≈ 2.11 µM)
Candida albicans [17]
  MIC: 0.2 µg/mL (≈ 0.216 µM)
Aspergillus flavus [18]
  inhibition zone (IZ): 15 mm
[19]
  inhibition zone (IZ): 20 mm
Candida albicans [20]
  MIC: 1 µg/mL

## COc1ccc(C2CC(=Nn3c(=O)cc[nH]c3=O)CC(c3ccc(OC)cc3)S2)cc1 (stereo not given)
Microsporum audouinii
  MIC: 4 µg/mL (≈ 9.14 µM)
Candida albicans [2]
  MIC: 0.25 µg/mL (≈ 0.571 µM)

## OC[C@H]1O[C@@H](Sc2nnc(Cc3ccc4ccc5cccc6ccc3c4c56)c3ccccc23)[C@H](O)[C@H]1O
Aspergillus fumigatus [21]
  MIC: 17 µg/mL (≈ 33.4 µM)

## COc1ccc(NC(=O)c2nn(-c3ccccc3)c(=N)c(C#N)c2C)cc1
Aspergillus fumigatus [22]
  inhibition zone (IZ): 20 mm
Candida albicans [23]
  inhibition zone (IZ): 26 mm

## O=C(NNc1nc2ccccc2nc1/C=C/c1ccccc1O)Nc1cccc(Cl)c1
Candida albicans [24]
  MIC: 0.125 µM

## COc1ccc(/N=N/c2sc(-n3[nH]c(=O)ccc3=O)nc2C)cc1
Candida albicans [17]
  MIC: 0.2 µg/mL (≈ 0.582 µM)

## CCOC(=O)c1c(C)nc2sc3c(-n4nc(C)cc4C)ncnc3c2c1-c1cccs1
Aspergillus niger [12]
  inhibition zone (IZ): 24 mm
[25]
  inhibition zone (IZ): 25 mm

## Clc1ccccc1C(c1ccccc1)(c1ccccc1)n1ccnc1 [CLOTRIMAZOLE]
Aspergillus fumigatus [26]
  MIC: 68 µg/mL (≈ 197 µM)
Microsporum audouinii
  MIC: 4 µg/mL (≈ 11.6 µM)
Cryptococcus neoformans [1]
  MIC: 2 µg/mL (≈ 5.8 µM)
Trichophyton rubrum
  inhibition zone (IZ): 14 mm
Geotrichum candidum
  MIC: 5 µg/mL (≈ 14.5 µM)

## C[C@@H]1[C@H](O)[C@@H](C)/C=C/C=C/CC/C=C/C=C/C=C/C=C/[C@H](O[C@@H]2O[C@H](C)[C@@H](O)[C@H](N)[C@@H]2O)C[C@@H]2O[C@](O)(C[C@@H](O)[C@H](O)CC[C@@H](O)C[C@@H](O)C[C@@H](O)CC(=O)O[C@H]1C)C[C@H](O)[C@H]2C(=O)O
Candida albicans [5]
  inhibition (INH): 63%
Candida albicans [7]
  inhibition zone (IZ): 23 mm
Candida albicans [27]
  inhibition zone (IZ): 26 mm
Aspergillus niger [6]
  inhibition (INH): 66%
Candida albicans [28]
  MIC: 1 µg/mL (≈ 1.08 µM)

## Cc1n[nH]c2c(C#N)c(=O)n(-c3ccc(N)cc3)nc12
Aspergillus fumigatus [16]
  MIC: 1.95 µg/mL (≈ 7.32 µM)

## CCOC(=O)c1c(C)nc2sc3c(=O)[nH]cnc3c2c1-c1cccs1
Candida albicans [7]
  inhibition zone (IZ): 25 mm
[25]
  inhibition zone (IZ): 25 mm

## O=C1N=C(n2[nH]c(=O)ccc2=O)S/C1=N\Nc1ccc(Cl)cc1Cl
Candida albicans [15]
  MIC: 2.1 µg/mL (≈ 5.47 µM)
Candida albicans [17]
  MIC: 0.6 µg/mL (≈ 1.56 µM)

## OC(Cn1cncn1)(Cn1cncn1)c1ccc(F)cc1F [FLUCONAZOLE]
Candida albicans [29]
  inhibition zone (IZ): 22 mm
Candida parapsilosis
  MIC: 0.78 µg/mL (≈ 2.55 µM)
Candida albicans [30]
  inhibition zone (IZ): 2.1 mm
Aspergillus flavus [31]
  inhibition zone (IZ): 2.9 mm
Candida albicans [32]
  MIC50: 0.78 µg/mL (≈ 2.55 µM)
Aspergillus fumigatus [33]
  MIC: < 212 µg/mL
Saccharomyces cerevisiae [34]
  inhibition zone (IZ): 13 mm
Pichia kudriavzevii
  MIC: 0.78 µg/mL (≈ 2.55 µM)
Candida albicans [24]
  MIC: ≤ 0.25 µg/mL
Cryptococcus neoformans [14]
  MIC: 8 µg/mL (≈ 26.1 µM)
Nakaseomyces glabratus
  MIC: 0.78 µg/mL (≈ 2.55 µM)
Candida albicans [35]
  inhibition zone (IZ): 24 mm
Candida albicans [36]
  MIC: 0.125 µg/mL (≈ 0.408 µM)
Rhizopus microsporus
  inhibition zone (IZ): 12 mm
Saccharomyces cerevisiae [37]
  inhibition zone (IZ): 11 mm
Aspergillus niger [38]
  inhibition zone (IZ): 20 mm
Candida albicans [20]
  MIC: > 64 µg/mL
Candida albicans [39]
  inhibition zone (IZ): 10 mm

## CCC(C)CC(C)CCCCCCCCC(=O)N[C@H]1C[C@@H](O)[C@@H](NCCN)NC(=O)[C@@H]2[C@@H](O)CCN2C(=O)[C@H]([C@H](O)CCN)NC(=O)[C@H]([C@H](O)[C@@H](O)c2ccc(O)cc2)NC(=O)[C@@H]2C[C@@H](O)CN2C(=O)[C@H]([C@@H](C)O)NC1=O (stereo not given in full)
Penicillium chrysogenum
  MIC: 0.25 µg/mL (≈ 0.229 µM)
Aspergillus flavus [40]
  MIC: 0.25 µg/mL (≈ 0.229 µM)
Fusarium solani
  MIC: 0.25 µg/mL (≈ 0.229 µM)
Penicillium frequentans
  MIC: 0.25 µg/mL (≈ 0.229 µM)
Alternaria alternata
  MIC: 0.25 µg/mL (≈ 0.229 µM)
